# pKi: −log10 of the molar value.
# Key:
# NMRI mice = experiment: Inhibition of catalepsy generated by haloperidol (45° inclined grid); assay type: in vivo
# Experimental: Experiments were elaborated on 20-25 g weight NMRI mice. Groups of 10 mice were treated intraperitoneally with 15 mg/kg of haloperidol and carrier agent. Deramciclane (and carriers) were administered orally in different doses 60 minutes later. After a subsequent 60 minutes period mice were placed to a grid which has an inclination angle of 45°. In case of the animals were motionless for more than 30 seconds on the grid the events were seen as catalepsy. The procedure was repeated in every 30 minutes for 3 hours.
# The effects are shown by percentage of changes compared to control group.
# 5-HT2A = 5-HT2A (Homo sapiens, UniProt P28223); conditions: read-out: Receptor Affinity (Ki); cited from earlier work
# 5-HT2C = 5-HT2C (Homo sapiens, UniProt P28335); conditions: read-out: Receptor Affinity (Ki); cited from earlier work
# [1] = deramciclane alone; cited from earlier work
# Dopamine D2 = Dopamine D2 (Homo sapiens, UniProt P14416); conditions: read-out: Receptor Affinity (Ki); cited from earlier work
# Sequence of Dopamine D2 (P14416 whole entry): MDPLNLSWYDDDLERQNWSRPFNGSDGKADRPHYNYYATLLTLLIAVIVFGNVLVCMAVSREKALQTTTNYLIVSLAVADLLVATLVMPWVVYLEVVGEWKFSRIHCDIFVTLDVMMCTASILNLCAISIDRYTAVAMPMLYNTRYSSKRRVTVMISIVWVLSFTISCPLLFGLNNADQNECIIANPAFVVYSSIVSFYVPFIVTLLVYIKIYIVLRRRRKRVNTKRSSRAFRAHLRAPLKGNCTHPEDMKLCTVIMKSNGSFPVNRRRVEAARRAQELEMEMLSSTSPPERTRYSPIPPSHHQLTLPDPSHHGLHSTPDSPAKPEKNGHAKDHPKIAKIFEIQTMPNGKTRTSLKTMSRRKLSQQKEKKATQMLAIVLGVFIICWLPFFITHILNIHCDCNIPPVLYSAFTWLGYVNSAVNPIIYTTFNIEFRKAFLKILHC
# Sequence of 5-HT2A (P28223 whole entry, species assumed): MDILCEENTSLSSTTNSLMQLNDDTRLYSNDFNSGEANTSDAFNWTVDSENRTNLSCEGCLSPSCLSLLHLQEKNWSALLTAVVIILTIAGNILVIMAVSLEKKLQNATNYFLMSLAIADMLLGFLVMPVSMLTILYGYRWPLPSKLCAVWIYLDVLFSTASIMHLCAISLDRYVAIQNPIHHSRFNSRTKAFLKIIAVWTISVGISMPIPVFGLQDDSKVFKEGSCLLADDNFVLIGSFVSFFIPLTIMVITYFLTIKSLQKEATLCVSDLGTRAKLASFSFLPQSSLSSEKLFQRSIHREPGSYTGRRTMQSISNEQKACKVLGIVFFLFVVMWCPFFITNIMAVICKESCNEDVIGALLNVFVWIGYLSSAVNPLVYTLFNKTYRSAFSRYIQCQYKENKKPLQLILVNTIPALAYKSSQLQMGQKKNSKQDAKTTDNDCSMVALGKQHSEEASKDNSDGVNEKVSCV
# Sequence of 5-HT2C (P28335 33-458, species assumed): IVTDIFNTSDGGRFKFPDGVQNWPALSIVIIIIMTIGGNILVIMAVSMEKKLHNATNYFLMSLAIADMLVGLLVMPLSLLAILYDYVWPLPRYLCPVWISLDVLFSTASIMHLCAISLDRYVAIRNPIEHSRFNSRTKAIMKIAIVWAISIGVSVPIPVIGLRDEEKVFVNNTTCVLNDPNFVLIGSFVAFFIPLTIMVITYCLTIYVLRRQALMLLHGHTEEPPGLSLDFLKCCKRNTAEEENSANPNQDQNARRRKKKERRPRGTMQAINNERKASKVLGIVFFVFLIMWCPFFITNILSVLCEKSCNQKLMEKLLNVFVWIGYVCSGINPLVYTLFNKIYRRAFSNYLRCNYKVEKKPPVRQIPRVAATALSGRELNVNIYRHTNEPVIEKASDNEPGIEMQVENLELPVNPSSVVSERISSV
SMILES,Catalepsy (average ± SE)/10 animals (NMRI mice; haloperidol 15 mg/kg ip. alone (plus carrier)),pKi (5-HT2A),"Catalepsy (average ± SE)/10 animals (NMRI mice; deramciclane 20 mg/kg po. + haloperidol 15 mg/kg ip., p < 0.05 vs haloperidol)","Catalepsy (average ± SE)/10 animals (NMRI mice; deramciclane 40 mg/kg po. + haloperidol 15 mg/kg ip., p < 0.05 vs haloperidol)","Catalepsy (average ± SE)/10 animals (NMRI mice; deramciclane 80 mg/kg po. + haloperidol 15 mg/kg ip., p < 0.05 vs haloperidol)","Inhibition of catalepsy generated by haloperidol (in words) (NMRI mice; deramciclane 20-80 mg/kg po., haloperidol 15 mg/kg ip.)",pKi (5-HT2C),Catalepsy caused by the compound by itself (in words) [1],pKi (Dopamine D2)
"O=C(CCCN1CCC(O)(c2ccc(Cl)cc2)CC1)c1ccc(F)cc1 [Haloperoidol, haloperidol, reference compound]",9.3 ± 0.4 /10 animals,,,,,,,,
"CN(C)CCO[C@]1(c2ccccc2)C[C@H]2CC[C@]1(C)C2(C)C [Deramciclane, (1R,2S,4R)-(−)-2-[N,N-(dimethylamino-ethoxy)]-2-phenyl-1,7,7-trimethyl-biciklo[2.2.1]heptane]",,7.96,6.5 ± 0.7 /10 animals,4.7 ± 1.3 /10 animals,3.5 ± 1.5 /10 animals,inhibits the catalepsy generated by haloperidol in a dose dependent way,7.57,does not cause catalepsy by itself,6.95

# — patent US20090124606A1, “Composition for Treatment of Psychosis” (priority 2005, published 2009)
